The values below are quoted from earlier work in PubChem BioAssay AID1259409 (Chemical Carcinogenesis Research Information System (CCRIS), 2018).

For this data set, the system named is rodent chemically induced tumor inhibition, incidence and multiplicity. Kind of data set: CCRIS tumor inhibitor studies. As to conditions: Route [Inhibitor]: ORAL, Species: RAT.

Regarding `O=C(O)CC(O)(CC(=O)O)C(=O)O`, the “tumour outcome (control, treated, inhibition, significance)” value is on record as 3/15 (20%), 3/15 (20%), 0%, not significant (Carcinogen: N-BUTYL-N-(4-HYDROXYBUTYL)NITROSAMINE, 3817-11-6, Dose [Inhibitor]: 4.85% IN BASAL DIET ADMINISTERED SIMULTANEOUSLY WITH CARCINOGEN DOSE FOR 20 WK (STUDY DURATION: 20 WK), Strain/Sex: F344/MALE, Target Tissue: Type of Lesion: BLADDER: CARCINOMA, Dose [Carcinogen]: 0.025% IN DRINKING WATER FOR 20 WK, Promoter: NONE USED); 4/15 (27%), 2/15 (13%), 50%, not significant (Carcinogen: N-BUTYL-N-(4-HYDROXYBUTYL)NITROSAMINE, 3817-11-6, Dose [Inhibitor]: 4.85% IN BASAL DIET ADMINISTERED SIMULTANEOUSLY WITH CARCINOGEN DOSE FOR 20 WK (STUDY DURATION: 20 WK), Strain/Sex: F344/MALE, Target Tissue: Type of Lesion: BLADDER: PAPILLOMA, Dose [Carcinogen]: 0.025% IN DRINKING WATER FOR 20 WK (FOR A TOTAL INTAKE OF 4.1 MMOL/RAT), Promoter: NONE USED); 3/15 (20%), 12/15 (80%), -300%, p<0.01 (Carcinogen: N-BUTYL-N-(4-HYDROXYBUTYL)NITROSAMINE, 3817-11-6, Dose [Inhibitor]: 6.50% IN BASAL DIET ADMINISTERED SIMULTANEOUSLY WITH CARCINOGEN DOSE FOR 20 WK (STUDY DURATION: 20 WK), Strain/Sex: F344/MALE, Target Tissue: Type of Lesion: BLADDER: CARCINOMA, Dose [Carcinogen]: 0.025% IN DRINKING WATER FOR 20 WK, Promoter: NONE USED); 4/15 (27%), 3/15 (20%), 25%, not significant (Carcinogen: N-BUTYL-N-(4-HYDROXYBUTYL)NITROSAMINE, 3817-11-6, Dose [Inhibitor]: 6.50% IN BASAL DIET ADMINISTERED SIMULTANEOUSLY WITH CARCINOGEN DOSE FOR 20 WK (STUDY DURATION: 20 WK), Strain/Sex: F344/MALE, Target Tissue: Type of Lesion: BLADDER: PAPILLOMA, Dose [Carcinogen]: 0.025% IN DRINKING WATER FOR 20 WK (FOR A TOTAL INTAKE OF 6.8 MMOL/RAT), Promoter: NONE USED); 13/15 (87%), 14/15 (93%), -8%, not significant (Carcinogen: N-ETHYL-N-(4-HYDROXYBUTYL)NITROSAMINE, 54897-62-0, Dose [Inhibitor]: 4.85% IN BASAL DIET ADMINISTERED SIMULTANEOUSLY WITH CARCINOGEN DOSE FOR 20 WK (STUDY DURATION: 20 WK), Strain/Sex: F344/MALE, Target Tissue: Type of Lesion: BLADDER: CARCINOMA, Dose [Carcinogen]: 0.021% IN DRINKING WATER FOR 20 WK, Promoter: NONE USED); 14/15 (93%), 13/15 (87%), 7%, not significant (Carcinogen: N-ETHYL-N-(4-HYDROXYBUTYL)NITROSAMINE, 54897-62-0, Dose [Inhibitor]: 4.85% IN BASAL DIET ADMINISTERED SIMULTANEOUSLY WITH CARCINOGEN DOSE FOR 20 WK (STUDY DURATION: 20 WK), Strain/Sex: F344/MALE, Target Tissue: Type of Lesion: BLADDER: PAPILLOMA, Dose [Carcinogen]: 0.021% IN DRINKING WATER FOR 20 WK, Promoter: NONE USED). Besides, the “tumour outcome (control, treated, inhibition, significance)” value is recorded as 13/15 (87%), 15/15 (100%), -15%, not significant (Carcinogen: N-ETHYL-N-(4-HYDROXYBUTYL)NITROSAMINE, 54897-62-0, Dose [Inhibitor]: 6.50% IN BASAL DIET ADMINISTERED SIMULTANEOUSLY WITH CARCINOGEN DOSE FOR 20 WK (STUDY DURATION: 20 WK), Strain/Sex: F344/MALE, Target Tissue: Type of Lesion: BLADDER: CARCINOMA, Dose [Carcinogen]: 0.021% IN DRINKING WATER FOR 20 WK, Promoter: NONE USED); 14/15 (93%), 13/15 (87%), 7%, not significant (Carcinogen: N-ETHYL-N-(4-HYDROXYBUTYL)NITROSAMINE, 54897-62-0, Dose [Inhibitor]: 6.50% IN BASAL DIET ADMINISTERED SIMULTANEOUSLY WITH CARCINOGEN DOSE FOR 20 WK (STUDY DURATION: 20 WK), Strain/Sex: F344/MALE, Target Tissue: Type of Lesion: BLADDER: PAPILLOMA, Dose [Carcinogen]: 0.021% IN DRINKING WATER FOR 20 WK, Promoter: NONE USED); 15/15 (100%), 4/14 (29%), 71%, p<0.05 (Carcinogen: N-ETHYL-N-HYDROXYETHYLNITROSAMINE, 13147-25-6, Dose [Inhibitor]: 0, 5% IN DIET OF UNILATERALLY NEPHRECTOMIZED RATS BEGINNING POST CARCINOGEN TREATMENT AND CONTINUING FOR 18 WK (STUDY DU, Strain/Sex: WISTAR/MALE, Target Tissue: Type of Lesion: KIDNEY: RENAL CELL TUMOR, Dose [Carcinogen]: 1000 PPM IN DIET FOR 2 WK, Promoter: POTASSIUM DIBASIC PHOSPHATE, 7758-11-4).
